Experimental data taken from patent US12448364B2, “2, 4-diaminopyrimidine derivative and application thereof” (Shanghai Zheye Biotechnology Co., Ltd., priority 2018, dated 2025).
Where two headings read alike, the source gives them in different places.

Assays:
ALK2 kinase = ALK2 kinase (Homo sapiens (Human), UniProt Q04771); test: Inhibitory activity test of the compounds on ALK2 (Promega ALK2 Kinase Enzyme System, ADP-Glo); type: biochemical; conditions: ADP-Glo chemiluminescence, 65 μM ATP substrate mix; read-out: IC50 (nM) values of the inhibitory activities on ALK2
ALK2 kinase, sequence (Q04771 21-509): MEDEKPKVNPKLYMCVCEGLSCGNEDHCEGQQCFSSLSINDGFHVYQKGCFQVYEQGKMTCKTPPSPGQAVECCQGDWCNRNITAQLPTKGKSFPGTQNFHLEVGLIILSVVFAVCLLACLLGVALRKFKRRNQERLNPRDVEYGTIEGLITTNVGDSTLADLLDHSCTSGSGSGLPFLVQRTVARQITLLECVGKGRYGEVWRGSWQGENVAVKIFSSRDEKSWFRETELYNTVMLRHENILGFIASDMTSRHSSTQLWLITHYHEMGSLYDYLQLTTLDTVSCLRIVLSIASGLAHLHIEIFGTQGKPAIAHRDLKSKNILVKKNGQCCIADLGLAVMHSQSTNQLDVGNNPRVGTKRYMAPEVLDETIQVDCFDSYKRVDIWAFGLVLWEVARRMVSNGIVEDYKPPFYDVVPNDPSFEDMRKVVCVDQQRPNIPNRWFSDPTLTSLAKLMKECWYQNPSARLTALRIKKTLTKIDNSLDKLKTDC
Method: 1. Inhibitory Activity Test of the Compounds on ALK2
ALK2 Kinase Enzyme System kit from Promega was used for the test. Reagents for kinase test was prepared first, the reagents comprising: (1)4×Kinase buffer 250 μL (containing 200 μM DTT); (2)5×Inhibitor mother liquor, i.e., the test compound was prepared into 10 mM mother liquor with DMSO, and the test compound was diluted into 5 mM (20 μL of 10 mM test compound mother liquor+20 μL of DMSO dissolved) with DMSO; (3)1×Kinase buffer (containing 1% DMSO) 200 μL; (4)1×Kinase buffer 40 μL; @Kinase solution 115 μL; (6)Substrate Mix (containing 65 μM ATP) 120 μL. The inhibitor working solution was then prepared, i.e., the test compound was prepared into 5 mM mother liquor with DMSO, 1 μL of 5 mM mother liquor was taken and was diluted into the concentration of 50000 nM by adding 99 μL 1×Kinase buffer; 20 μL of the solution of this concentration was taken, and 80 μL of 1×Kinase buffer (containing 1% DMSO) was added thereto to obtain the concentration of 10000 nM, 5 times dilution was carried out in this way, and a total of 6 concentration gradients were provided. 1 μL of the compound at each concentration was taken and added to a 384-well plate, and then 2 μL Kinase solution (160 mM Tris, 7.5; 80 mM MgCl2; 0.4 mg/ml BSA; 200 μM DTT; ALK2 kinase) was added to each well, and the plate was centrifuged at 1000 rpm for 20 seconds at room temperature, incubated for 30 minutes at 25° C.; then 2 μL of a mixture containing ATP and kinase substrate was added to each well, the plate was centrifuged at 1000 rpm for 20 seconds at room temperature, and incubated at 25° C. for 120 minutes. Then 5 μL of ADP-Glo™ reagent was added to each well, and the plate was incubated at 25° C. for 40 minutes; then 10 μL of Kinase Detection Reagent was added to each well, the plate was incubated at 25° C. for 30 minutes and then was tested; a microplate reader was used to record the chemiluminescence value, the curve was fitted with Origin 7.5, the IC50 (nM) value of the test substance on the ALK2 kinase activity was calculated.

hepcidin in HepG2 cells = test: Inhibition test of compounds on hepcidin expression in HepG2 cells (hepcidin ELISA); type: cell-based, human; conditions: 48 hours incubation, hepcidin protein in supernatant by ELISA, read-out: IC50 (nM) values of the inhibitory activities on hepcidin in HepG2 cells
Method: 2. Inhibition Test of Compounds on Hepcidin Expression in HepG2 Cells
HepG2 cells (ATCC HB-8065) in the exponential growth phase were digested with trypsin-EDTA, inoculated into 96-well plates at 5000 cells/well, and cultured in MEM (10% FBS) medium at 37° C. under 5% CO2 conditions for 24 hours, the test compound dissolved in DMSO and diluted in the medium and at a gradient concentration was added to each culture well. The preparation method of the test compound is: a compound mother liquor at a concentration of 10 mM was prepared, and then the compound was diluted in a gradient. The highest concentration of the compound for test was 10 μM, and a total of 8 gradients were obtained by 5-fold dilution. The diluted compound was added to a 96-well plate covered with cells, 50 μL per well. After the compound was added, the plate was placed in an incubator stored at 37° C. and 5% CO2, and incubated for another 48 hours. After the incubation was completed, the 96-well plate was centrifuged at 1000 rpm for 5 minutes at room temperature, the supernatant was taken, ELISA sample loading and detecting were completed within 30 minutes. Hepcidin ELISA kit (Human Hepcidin Quantikine ELISA Kit, R&D systems, Cat #DHP250) was used to quantitatively detect hepcidin protein. […] After washing and color development, the absorbance value was determined with a microplate reader at 450 nm, and the concentration of hepcidin protein in the test sample was calculated according to the quasi-curve of human hepcidin protein determination, and the curve was fitted with Origin 7.5 software, the IC50 (nM) value on the inhibition of producing hepcidin preotein of HepG2 cells by the test compound was calculated.

IC50 (ALK2 kinase) | IC50 (hepcidin in HepG2 cells; Homo sapiens) | IC50 (hepcidin in HepG2 cells) | Structure (SMILES)
150 to 500 nM | – | – | COc1cc(Nc2nccc(Nc3cccnc3-c3ccccn3)n2)ccc1C1CCOCC1 [Compound 1, N^4-(2,2′-bipyridin-3-yl)-N^2-(3-methoxy-4-(tetrahydro-2H-pyran-4-yl)phenyl)pyrimidine-2,4-diamine]
≤ 150 nM | 14 nM | – | COc1cc(Nc2nccc(Nc3cccnc3-c3ccccn3)n2)ccc1C1CCN(C)CC1 [Compound 2, N^4-(2,2′-bipyridin-3-yl)-N^2-3-(methoxy-4-(1-methylpiperidin-4-yl)phenyl)pyrimidine-2,4-diamine]
150 to 500 nM | – | – | COc1cc(Nc2ncc(OC)c(Nc3cccnc3-c3ccccn3)n2)ccc1C1CCOCC1 [Compound 4, N^4-(2,2′-bipyridin-3-yl)-5-methoxy-N^2-(3-methoxy-4-(tetrahydro-2H-pyran-4-yl)phenyl)pyrimidine-2,4-diamine]
≤ 150 nM | 30 nM | – | COc1cc(Nc2nccc(Nc3ccc(C)nc3-c3ccccn3)n2)ccc1C1CCN(C)CC1 [Compound 5, N^2-(3-methoxy-4-(1-methylpiperidin-4-yl)phenyl)-N^4-(6-methyl-2,2′-bipyridin-3-yl)pyrimidine-2,4-diamine]
≥ 500 nM | – | 532 nM | COc1cc(Nc2nccc(Nc3cccnc3-c3ccccn3)n2)cc(OC)c1OC [Compound I*, reference compound]
